Drawing on ChEMBL document CHEMBL3627658, “Novel concept of enzyme selective nicotinamide adenine dinucleotide (NAD)-modified inhibitors based on enzyme taxonomy from the diphosphate conformation of NAD” (Bioorg Med Chem Lett, 2015), this text covers Activity and Ki for three compounds.

pKi: −log10 of the molar value.

The species named for one test is Gallus gallus. The test can be described thus: Inhibition of chicken liver NAD kinase assessed as residual activity relative to control.
Test [1] can be described thus: Inhibition of pig heart LDH by Michaelis constant analysis. Details: species or system Sus scrofa.
A short description of test [2]: Inhibition of pig heart MDH by Michaelis constant analysis. Details: species or system Sus scrofa.
Test [3] is described as follows: Inhibition of Leuconostoc mesenteroides D-LDH by Michaelis constant analysis.
Test [4] can be described thus: Inhibition of Thermoanaerobacter brockii ADH by Michaelis constant analysis.
A short description of test [5]: Inhibition of yeast ADH by Michaelis constant analysis. Also on record: species or system Saccharomyces cerevisiae.

For the compound `NC(=O)c1csc([C@@H]2O[C@H](COC(=O)[C@H]3CCCC[C@@H]3C(=O)OC[C@H]3O[C@@H](n4cnc5c(N)ncnc54)[C@H](O)[C@@H]3O)[C@@H](O)[C@H]2O)n1`, the Activity in the test filed under Gallus gallus amounted to 60%. Also, the pKi in test [1] was 2.41; in test [2], 2.48; in test [3], 1.62; in test [4] it was 2.15; in test [5], 2.59.

Regarding `NC(=O)c1csc([C@@H]2O[C@H](COC(=O)[C@@H]3CCCC[C@H]3C(=O)OC[C@H]3O[C@@H](n4cnc5c(N)ncnc54)[C@H](O)[C@@H]3O)[C@@H](O)[C@H]2O)n1`, the Activity in the test filed under Gallus gallus amounted to 81%. In addition, the negative-log Ki (pKi) in test [1] was 3.10; in test [2], 3.15; in test [3], 2.00; in test [4], 3.15; in test [5] it was 3.21.

Consider `NC(=O)c1csc([C@@H]2O[C@H](COC(=O)CCC(=O)OC[C@H]3O[C@@H](n4cnc5c(N)ncnc54)[C@H](O)[C@@H]3O)[C@@H](O)[C@H]2O)n1`, for which, in the test filed under Gallus gallus, the Activity was found to be 64%. For the same compound, the pKi in test [1] was 2.57; in test [2] it was 2.74; in test [3], 1.70; in test [4] it was 2.14; in test [5], 2.44.

In general, pKi refers to the negative decadic logarithm of the Ki, by convention in mol/L. Low readings indicate a large Ki, high ones a small Ki.
